Measured values: publication PMC12064818, “A general assay platform to study protein pharmacology using ligand-dependent structural dynamics” (Nature Communications, 2025)

Biological target: T1, FLuc-C-HiBiT (Photinus pyralis, UniProt P08659)
T1 construct: firefly luciferase with C-terminal HiBiT tag, E. coli expressed
Assay: biochemical
Details: enzyme activity, 10 uM ATP; read-out: IC50 or SDR50 (mM) / FLuc E
Protocol: The enzyme activity of FLuc-N-HiBiT, FLuc-C-HiBiT, and FLuc-C-NLuc was measured similar to P. pyralis firefly luciferase (FLuc) as previously described. […] Compounds and controls were added to each plate as described in Supplementary Data 8 with a Hornet pintool system (Wako Automation). Compounds were incubated with respective enzymes for 30–60 min at room temperature protected from light and covered by solid metal lid to prevent evaporation. […] Luciferin was incubated with FLuc enzyme for 5 min before FLuc activity was then measured on a ViewLux CCD imager (PerkinElmer), with exposure times up to ten seconds with medium to high gain settings. Data were normalized to average no enzyme control as 100% enzyme inhibition and average DMSO neutral control. See Supplementary Table 4 for additional details. As a proof-of-concept target, we appended the sensor protein or corresponding α-peptide to either the N- or C-terminus of the target protein firefly luciferase (FLuc), an ATP cofactor-dependent monooxygenase (Supplementary Fig. 1a) having a broad, well-characterized and accessible ligand pharmacology. For initial characterization of the SDR concept, either NLuc or the 11 amino acid HiBiT tag (α-peptide) and complementary 18 kDa LgBiT subunit (ω-fragment), which self-assemble to reconstitute functional NLuc enzyme[24] were tested. In contrast to the ATP-dependent bioluminescent FLuc enzyme, NLuc generates a bright bioluminescence in an ATP-independent manner from the direct oxidation of furimazine (Supplementary Fig. 1b). […] Next, FLuc-C-NLuc, FLuc-N-HiBiT or FLuc-C-HiBiT were assayed with the same inhibitor in an SDR assay format by monitoring bioluminescence from NLuc or its reconstitution by α-complementation with LgBiT. Measurements of NLuc activity were made either in the absence or presence of the FLuc ATP cofactor, as NLuc bioluminescence is ATP-independent.

T1 sequence (P08659 whole entry, looked up): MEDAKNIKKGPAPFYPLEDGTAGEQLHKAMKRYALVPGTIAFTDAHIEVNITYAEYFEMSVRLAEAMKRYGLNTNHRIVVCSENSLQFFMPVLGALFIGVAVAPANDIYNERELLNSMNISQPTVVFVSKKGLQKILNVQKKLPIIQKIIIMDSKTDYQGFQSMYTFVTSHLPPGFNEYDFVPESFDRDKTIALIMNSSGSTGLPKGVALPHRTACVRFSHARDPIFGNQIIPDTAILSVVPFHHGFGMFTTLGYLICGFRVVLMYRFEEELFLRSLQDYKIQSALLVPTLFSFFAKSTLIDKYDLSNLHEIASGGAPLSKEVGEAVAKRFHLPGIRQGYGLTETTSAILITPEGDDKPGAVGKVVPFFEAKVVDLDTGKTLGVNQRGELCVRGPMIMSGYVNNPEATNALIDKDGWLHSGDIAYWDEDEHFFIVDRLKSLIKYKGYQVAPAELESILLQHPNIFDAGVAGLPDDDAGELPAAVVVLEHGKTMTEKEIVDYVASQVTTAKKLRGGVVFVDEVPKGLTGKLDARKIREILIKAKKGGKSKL

Compound | IC50 [µM]
CCOc1ncccc1C(=O)OCC(=O)Nc1ccc(-c2nc3ccc(C)cc3s2)cc1 [MLS000418033-02] | 16
Cc1ccc(C(=O)Nc2cccc(C(=O)O)c2)cc1 [MLS000530214-02] | 0.0556
Nc1nc2c(ncn2COCCO)c(=O)[nH]1 [NCGC00015061-13] | > 30
O=c1[nH]nc2n1CCCCC2 [NCGC00019120-02] | > 30
Cc1n[nH]c2c1C(c1ccc(Cl)cc1)C(C#N)=C(N)O2 (stereo not drawn) [NCGC00027933-02] | > 30
Clc1cccc(-c2nc(-c3ccccn3)no2)c1 [NCGC00035901-01] | 0.989
CN1CCN(C(=O)COc2ccc(-c3nc4ccccc4s3)cc2)CC1 [NCGC00042506-01] | 0.495
c1ccc(-c2noc(-c3ccc4ccccc4c3)n2)cc1 [NCGC00045018-01] | 0.7
Fc1ccccc1-c1nc(-c2ccccc2)no1 [NCGC00058026-03] | 1.57
Cc1ccc(-c2nc(-c3ccccn3)no2)cc1Cl [NCGC00070724-01] | 0.624
Brc1ccccc1-c1nc(-c2ccccc2)no1 [NCGC00075547-01] | 3.51
Clc1ccc(-c2nc(-c3ccccn3)no2)cc1Cl [NCGC00075852-01] | 5.56
Cc1ccc(-c2noc(-c3ccccc3Br)n2)cc1 [NCGC00079622-01] | 1.57
Brc1ccc(-c2nc(-c3ccccn3)no2)o1 [NCGC00079657-01] | 1.24
c1ccc(-n2ncc3c(N4CCCCC4)ncnc32)cc1 [NCGC00081373-03] | 0.881
CC1CCCN(c2ncnc3c2cnn3-c2ccccc2)C1 (stereo not drawn) [NCGC00081381-02] | 0.442
CC1CCCN(c2ncnc3c2cnn3-c2ccc(Cl)cc2)C1 (stereo not drawn) [NCGC00081383-02] | 0.124
Cc1ccc(-n2ncc3c(N4CCCC(C)C4)ncnc32)c(C)c1 (stereo not drawn) [NCGC00081401-03] | 11.1
CC1CCN(c2ncnc3c2cnn3-c2ccccc2)CC1 [NCGC00081403-02] | 6.24
Cc1ccc(-c2nc(-c3ccccc3)no2)c(Cl)c1 [NCGC00085930-01] | 0.197
O=c1[nH]cnc2c1ncn2[C@H]1CC[C@@H](CO)O1 [NCGC00090691-03] | > 30
Cc1ccc2nc(-c3ccc(N)cc3)sc2c1[S+](=O)([O-])O [NCGC00091147-01] | 2.48
Nc1nc2c(nc(S)n2[C@@H]2O[C@H](CO)[C@@H](O)[C@H]2O)c(=O)[nH]1 [NCGC00096124-01] | 2.48
Oc1c(Br)cc(Br)cc1-c1nc2ccccc2s1 [NCGC00098096-01] | 12.4
CC(=O)Nc1cc(-c2nc3ccccc3s2)ccc1C [NCGC00098099-01] | 7
COc1cccc2cc(-c3nnc(-c4ccc(Cl)cc4)o3)c(=O)oc12 [NCGC00098120-01] | 3.51

Compound | IC50 [µM]
Nc1ccc2nc(-c3ccc(O)cc3)sc2c1 [NCGC00098122-01] | 0.624
CC(=O)c1ccc(N[S+](=O)([O-])c2cccc([S+](=O)([O-])c3ccc(Cl)cc3)c2)cc1 [NCGC00098154-01] | > 30
Cc1ccc2nc(-c3ccc(NC(=O)COc4ccc(Br)cc4Br)cc3)sc2c1 [NCGC00098202-02] | 3.51
Cc1ccc2nc(-c3ccc(NC(=O)COc4ccc(Cl)c(C)c4)cc3)sc2c1 [NCGC00098204-01] | > 30
Cc1ccc2nc(-c3ccc(NC(=O)COc4ccccc4)cc3)sc2c1 [NCGC00098210-01] | 6.24
Cc1ccc2nc(-c3ccc(NC(=O)COc4ccccc4C(C)(C)C)cc3)sc2c1 [NCGC00098265-01] | 14
Cc1ccc(NC(=O)/C=C/c2ccccc2Cl)cc1Cl [NCGC00098283-01] | 3.51
COc1ccccc1-c1nc2cc(NC(=O)c3ccccc3Cl)ccc2o1 [NCGC00098320-01] | 11.1
Cc1ccc2c(c1)sc1nc(-c3cc4ccccc4oc3=O)cn12 [NCGC00098323-01] | 0.248
CCc1ccc2oc(-c3ccc(NC(=O)c4ccc(OC)c(Br)c4)cc3)nc2c1 [NCGC00098340-01] | > 30
CCCCCSc1nnc(-c2ccc(Br)cc2)o1 [NCGC00098355-01] | > 30
O=C(Nc1ccccc1C(=O)O)c1cccc([S+](=O)([O-])N2CCCC2)c1 [NCGC00098464-01] | 12.4
Cc1ccc(C(=O)Nc2cccc(C(=O)O)c2)cc1[S+](=O)([O-])N1CCCC1 [NCGC00098466-01] | 0.0881
Cc1ccc(C(=O)Nc2ccccc2C(=O)O)cc1[S+](=O)([O-])N1CCCCCC1 [NCGC00098472-01] | 2.79
COc1cc(OC)cc(C(=O)Nc2ccccc2-c2nc3ccccc3s2)c1 [NCGC00098479-01] | > 30
CCC(=O)Nc1cc2nn(-c3ccc(C)cc3)nc2cc1C [NCGC00098511-01] | 0.394
COc1ccc(OCC(=O)Nc2cc(-c3nc4ccccc4s3)ccc2C)cc1 [NCGC00098594-01] | 12.4
Cc1ccc(-c2nc3ccccc3s2)cc1NC(=O)COc1ccccc1 [NCGC00098596-01] | > 30
O=C(Nc1ccc(-c2nc3ccccc3s2)c(O)c1)c1ccc(Br)cc1 [NCGC00098662-01] | > 30
O=C(COc1ccccc1Cl)Nc1ccc(-c2nc3ccccc3s2)cc1 [NCGC00098726-01] | > 30
O=C(COc1ccc(Cl)cc1)Nc1ccc(-c2nc3ccccc3s2)c(O)c1 [NCGC00098783-01] | > 30
Cc1ccc2nc(-c3ccc(NC(=O)Cc4ccccc4)cc3)sc2c1 [NCGC00098885-01] | 9.89
O=C(Nc1cc(-c2nc3ccccc3s2)ccc1Cl)c1cc2ccccc2o1 [NCGC00098905-01] | > 30
CCc1ccc2oc(-c3cccc(NC(=O)c4cc5ccccc5o4)c3)nc2c1 [NCGC00098909-01] | 12.4
N#C/C(=C\c1ccc(-c2cc(Cl)ccc2Cl)o1)C(=O)Nc1ccccc1C(=O)O [NCGC00098944-01] | 17.6
Clc1ccc(OCc2nc3ccccc3n2Cc2ccccc2)c(Cl)c1 [NCGC00098959-01] | 7

Compound | IC50 [µM]
O=C(Nc1ccc2oc(-c3ccccc3F)nc2c1)c1ccccc1Cl [NCGC00098974-01] | 5.56
COc1ccc(NC(=O)/C(C#N)=C/c2ccc(C)o2)cc1 [NCGC00099040-01] | 6.24
Cc1cc2nn(-c3ccc(Cl)cc3)nc2cc1NC(=O)C(C)C [NCGC00099081-01] | 0.7
COc1ccc(OCC(=O)Nc2ccc(O)c(-c3nc4ccccc4s3)c2)cc1 [NCGC00099132-01] | > 30
N#Cc1c(-n2ncnc2-c2ccc(Br)cc2)sc2c1CCCCC2 [NCGC00099350-01] | 9.89
COc1cccc2cc(C(=O)Nc3ccc(C)cc3)c(=O)oc12 [NCGC00099361-01] | 0.495
Cc1cccc(OCC(=O)Nc2cccc(-c3nc4ccccc4s3)c2)c1 [NCGC00099366-01] | 6.24
N#Cc1c(-n2ncnc2-c2cccc(Cl)c2)sc2c1CCCCC2 [NCGC00099368-01] | 1.97
N#Cc1c(-n2ncnc2-c2cccc(Br)c2)sc2c1CCCCC2 [NCGC00099370-01] | 3.13
N#Cc1c(-n2ncnc2-c2ccccc2Cl)sc2c1CCCCC2 [NCGC00099372-01] | 2.21
O=C(COc1ccc(Cl)cc1)Nc1ccc(-c2nc3cc(Cl)ccc3o2)c(O)c1 [NCGC00099397-01] | 7
CCOc1ccc2nc(NC(=O)c3ccccc3)sc2c1 [NCGC00099426-02] | 0.881
O=C(Nc1cccc(-c2nc3ccccc3[nH]2)c1)c1ccccc1F [NCGC00099429-01] | 14
Cc1ccc2nc(-c3ccc(NC(=O)COc4c(C)ccc(C)c4C)cc3)sc2c1 [NCGC00099580-01] | 11.1
Cc1ccc(C(=O)Nc2ccc3oc(-c4cccnc4)nc3c2)c(Cl)c1 [NCGC00099674-01] | 1.4
Cc1cccc(NC(=O)c2c(N)sc3c2CCC(C)C3)c1 (stereo not drawn) [NCGC00099772-01] | 9.89
CCOC(=O)c1ccc(NC2SC(=O)N(Cc3cccc(C(=O)O)c3)C2=O)cc1 (stereo not drawn) [NCGC00099894-01] | 12.4
Cc1ccc2nc(-c3ccc(NC(=O)C(F)(F)F)cc3)sc2c1 [NCGC00100068-01] | 0.785
CCCOC(=O)CSc1ncnc2sc3c(c12)CCC(C)C3 (stereo not drawn) [NCGC00100112-01] | 11.1
Nc1c(C(=O)Nc2ccc(C(=O)O)cc2)sc2nc3c(cc12)CCCC3 [NCGC00100367-01] | 0.176
CCOC(=O)C1(C)C=C(Nc2cccc(C(=O)O)c2)C(=O)N1c1ccccc1 (stereo not drawn) [NCGC00100416-01] | 12.4
COc1ccc(C(=O)Oc2ccc(C(c3c(C)n[nH]c3O)c3c(C)n[nH]c3O)cc2)cc1 [NCGC00100425-01] | 9.89
COc1ccc(-c2cc(=O)c3cc(OCC(=O)OC(C)C)ccc3o2)cc1 [NCGC00100608-01] | 3.94
COc1ccc2oc(=O)c(C(=O)Nc3cccc(C(=O)O)c3)cc2c1 [NCGC00100698-01] | 0.0157
COc1ccc(C(=O)COC(=O)CCCC(=O)Nc2ccc(C(C)=O)cc2)cc1 [NCGC00100762-01] | 9.89
O=C(COC(=O)c1cc(-c2cccs2)nc2ccccc12)c1ccc(Br)cc1 [NCGC00100768-01] | > 30
